Here are results for 20 compounds from patent US12091425B2 (AMGEN INC., priority 2016, dated 2024).

T1 sequence (Q07820 171-327): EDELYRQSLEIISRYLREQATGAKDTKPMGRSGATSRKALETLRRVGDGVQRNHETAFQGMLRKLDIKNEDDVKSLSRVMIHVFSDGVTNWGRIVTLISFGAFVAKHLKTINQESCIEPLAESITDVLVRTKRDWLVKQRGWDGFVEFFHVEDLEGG

One assay concerns the target T1, Mcl-1/Bim interaction, recombinant human Mcl-1 (171-327) (Homo sapiens, UniProt Q07820).
T1 construct: made in house
The assay can be described thus: Cell free Mcl-1: Bim Affinity Assay (Mcl-1 HTRF). The assay is classed as binding. To be noted: TR-FRET, 0.1 nM Mcl-1 (171-327), 0.05 nM biotin-Bim (51-76). The method in brief:
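Displacement of biotinylated Bim 51-76 peptide is followed by TR-FRET. Incubation runs overnight. Duplicate points are fitted with a four-parameter sigmoid to yield IC50.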
In general terms: In TR-FRET formats the signal depends on donor and acceptor labels being close together.
What is called IC50 is the concentration that gives 50% inhibition. With `CC[C@@H]1CC/C=C\[C@@H](NC(=O)C(C)C)[C@@H]2CC[C@H]2CN2C[C@@]3(CCCc4cc(Cl)ccc43)COc3ccc(cc32)C(=O)NS1(=O)=O` [Example 1082], the IC50 turned out to be 18 nM.

For the compound `COC[C@@H]1CC/C=C/[C@H](OC)[C@@H]2CC[C@H]2CN2C[C@@]3(CCCc4cc(Cl)ccc43)COc3ccc(cc32)C(=O)NS1(=O)=O` [Example 444, (1S,3′R,6′R,7′S,8′E,12′S)-6-chloro-7′-methoxy-12′-(methoxymethyl)-3,4-dihydro-2H,15′H-spiro[naphthalene-1,22′-[20]oxa[13]thia[1,14]diazatetracyclo[14.7.2.0^3,6.0^19,24]pentacosa [8,16,18,24]tetraen]-15′-one 13′,13′-dioxide], the IC50 was 0.785 nM. Still for that read-out and setting: in the case of `CCN1CC/C=C/[C@H](OC)[C@@H]2CC[C@H]2CN2C[C@@]3(CCCc4cc(Cl)ccc43)COc3ccc(cc32)C(=O)NS1(=O)=O` [Example 45] it was 2.3 nM; in that of `O=C1NS(=O)(=O)CCCCNC(=O)[C@@H]2CC[C@H]2CN2C[C@@]3(CCCc4cc(Cl)ccc43)COc3ccc1cc32` [Example 98, (1S,3′R,6′R)-6-chloro-3,4-dihydro-2H,7′H,15′H-spiro[naphthalene-1,22′-[20]oxa[13]thia[1,8,14]triazatetracyclo[14.7.2.0^3,6.0^19,24]pentacosa[16,18,24]triene]-7′,15′-dione 13′,13′-dioxide], 15.5 nM; in that of `CC[C@@H]1CC/C=C/[C@H](OCc2ccccn2)[C@@H]2CC[C@H]2CN2C[C@@]3(CCCc4cc(Cl)ccc43)COc3ccc(cc32)C(=O)NS1(=O)=O` [Example 976, (1S,3′R,6′R,7′S,8′E,12′R)-6-chloro-12′-ethyl-7′-(2-pyridinylmethoxy)-3,4-dihydro-2H,15′H-spiro[naphthalene-1,22′-[20]oxa[13]thia[1,14]diazatetracyclo[14.7.2.0^3,6.0^19,24]pentacosa [8,16,18,24]tetraen]-15′-one 13′,13′-dioxide], 10.4 nM. Take `CC[C@@H]1CC/C=C/C(NC(C)=O)[C@@H]2CC[C@H]2CN2C[C@@]3(CCCc4cc(Cl)ccc43)COc3ccc(cc32)C(=O)NS1(=O)=O` (stereo in doubt) [Example 1076, N-((1S,3′R,6′R,7′R,8′E,12′R)-6-chloro-12′-ethyl-13′,13′-dioxido-15′-oxo-3,4-dihydro-2H-spiro[naphthalene-1,22′-[20]oxa[13]thia[1,14]diazatetracyclo[14.7.2.0^3,6.0^19,24]pentacosa[8,16,18,24]tetraen]-7′-yl)acetamide]: the IC50 was 1.82 nM. In the case of `CN1CCCCS(=O)(=O)NC(=O)c2ccc3c(c2)N(C[C@@H]2CC[C@H]2C1=O)C[C@@]1(CCCc2cc(Cl)ccc21)CO3` [Example 99, (1S,3′R,6′R)-6-chloro-8′-methyl-3,4-dihydro-2H,7′H,15′H-spiro[naphthalene-1,22′-[20]oxa[13]thia[1,8,14]triazatetracyclo[14.7.2.0^3,6.0^19,24]pentacosa[16,18,24]trien]-7′,15′-dione 13′,13′-dioxide], the IC50 turned out to be 20.7 nM.

Still in this assay, the particulars now being: cell free Mcl-1:Bim TR-FRET, recombinant human Mcl-1 (171-327).
Take `CC1(C)CCC[C@H](O)[C@@H]2CC[C@H]2CN2C[C@@]3(CCCc4cc(Cl)ccc43)COc3ccc(cc32)C(=O)NS1(=O)=O` [Example 770, (1S,3′R,6′R,7′S)-6-chloro-7′-hydroxy-11′,11′-dimethyl-3,4-dihydro-2H,14′H-spiro[naphthalene-1,21′-[19]oxa[12]thia[1,13]diazatetracyclo[13.7.2.0^3,6.0^18,23]tetracosa[15,17,23]trien]-14′-one 12′,12′-dioxide]: the 50% inhibitory concentration (IC50) worked out at 1.33 nM. On the same count and under the same terms, in the case of `CCC1CCCC(O)C2CCC2CN2CC3(CCCc4cc(Cl)ccc43)COc3ccc(cc32)C(=O)NS1(=O)=O` (single isomer, unassigned) [Example 768] it was 2.24 nM.

In the case of `C=C1CCCCCS(=O)(=O)NC(=O)c2ccc3c(c2)N(C[C@@H]2CC[C@@H]12)C[C@@]1(CCCc2cc(Cl)ccc21)CO3` [Example 904, (1S,3′R,6′R)-6-chloro-7′-methylidene-3,4-dihydro-2H,15′H-spiro[naphthalene-1,22′-[20]oxa[13]thia[1,14]diazatetracyclo[14.7.2.0^3,6.0^19,24]pentacosa [16,18,24]trien]-15′-one 13′,13′-dioxide], the 50% inhibitory concentration (IC50) was found to be 16.2 nM. Same read-out and setting: to `O=C1NS(=O)(=O)CCC[C@]2(O)CCO[C@H](C2)[C@@H]2CC[C@H]2CN2C[C@@]3(CCCc4cc(Cl)ccc43)COc3ccc1cc32` (single isomer, unassigned) [Example 900] belongs 4.33 nM. Still for that read-out and setting: in the case of `CC(C)[C@@H]1CCCC[C@H](O)[C@@H]2CC[C@H]2CN2C[C@@]3(CCCc4cc(Cl)ccc43)COc3ccc(cc32)C(=O)NS1(=O)=O` (single isomer, unassigned) [Example 752] it was 4.39 nM; in that of `C[C@@H]1CC/C=C/C(=O)[C@@H]2CC[C@H]2CN2C[C@@]3(CCCc4cc(Cl)ccc43)COc3ccc(cc32)C(=O)NS1(=O)=O` [Example 604, (1S,3′R,6′R,8′E,12′R)-6-chloro-12′-methyl-3,4-dihydro-2H,7′H,15′H-spiro[naphthalene-1,22′-[20]oxa[13]thia[1,14]diazatetracyclo[14.7.2.0^3,6.0^19,24]pentacosa [8,16,18,24]tetraene]-7′,15′-dione 13′,13′-dioxide], 9.58 nM; in that of “(1S,3′R,6′S,14′S,15′S)-6-chloro-3,4-dihydro-2H,9′H,17′H-spiro[naphthalene-1,24′-[22]oxa[15]thia[1,10,16]triazapentacyclo[16.7.2.1^10,14.0^3,6.0^21,26]octacosa[18,20,26]triene]-9′,17′-dione 15′-oxide or (1S,3′R,6′S,14′S,15′R)-6-chloro-3,4-dihydro-2H,9′H,17′H-spiro[naphthalene-1,24′-[22]oxa[15]thia[1,10,16]triazapentacyclo[16.7.2.1^10,14.0^3,6.0^21,26]octacosa[18,20,26]triene]-9′,17′-dione 15′-oxide [Example 949]”, 8.43 nM. Consider `O=C1NS(=O)(=O)CCCC[C@@H]2CC[C@H]2CN2C[C@@]3(CCCc4cc(Cl)ccc43)COc3ccc1cc32` [Example 830, (1S,3′S,6′S)-6-chloro-3,4-dihydro-2H,13′H-spiro[naphthalene-1,20′-[18]oxa[11]thia[1,12]diazatetracyclo[14.7.2.0^3,6.0^19,24]tricosa[14, 16,22]trien]-13′-one 11′,11′-dioxide], for which the IC50 stood at 21.1 nM. Same read-out and setting: to `C[C@@H]1CC/C=C/[C@H](O)[C@@H]2CC[C@H]2CN2C[C@@]3(CCc4cc(Cl)ccc43)COc3ccc(cc32)C(=O)NS1(=O)=O` [Example 698, (1S,3′R,6′R,7′S,8′E,12′R)-5-chloro-7′-hydroxy-12′-methyl-2,3-dihydro-15′H-spiro[indene-1,22′-[20]oxa[13]thia[1,14]diazatetracyclo[14.7.2.0^3,6.0^19,24]pentacosa [8,16,18,24]tetraen]-15′-one 13′,13′-dioxide] belongs 0.679 nM; to `O=C1NS(=O)(=O)CCC=CC(O)C2CCC2CN2CC3(CCCc4cc(Cl)ccc43)COc3ccc1cc32` (mixture of isomers) [Example 776, (1S,3′R,6′R,7′S,8′E)-6-chloro-7′-hydroxy-3,4-dihydro-2H,14′H-spiro[naphthalene-1,21′-[19]oxa[12]thia[1,13]diazatetracyclo [13.7.2.0^3,6.0^18,23]tetracosa[8,15,17,23]tetraen]-14′-one 12′,12′-dioxide and (1S,3′R,6′R,7′S,8′Z)-6-chloro-7′-hydroxy-3,4-dihydro-2H,14′H-spiro[naphthalene-1,21′-[19]oxa[12]thia[1,13]diazatetracyclo[13.7.2.0^3,6.0^18,23]tetracosa[8,15,17,23]tetraen]-14′-one 12′,12′-dioxide], 2.71 nM. Still for that read-out and setting: in the case of `O=C1NS(=O)(=O)CCC[C@H](O)CC[C@@H]2CC[C@H]2CN2C[C@@]3(CCCc4cc(Cl)ccc43)COc3ccc1cc32` (single isomer, unassigned) [Example 502, (1S,3′R,6′S,9′R)-6-chloro-9′-hydroxy-3,4-dihydro-2H,15′H-spiro[naphthalene-1,22′-[20]oxa[13]thia[1,14]diazatetracyclo[14.7.2.0^3,6.0^19,24]pentacosa [16,18,24]trien]-15′-one 13′,13′-dioxide or (1S,3′R,6′S,9′S)-6-chloro-9′-hydroxy-3,4-dihydro-2H,15′H-spiro[naphthalene-1,22′-[20]oxa[13]thia[1,14]diazatetracyclo[14.7.2.0^3,6.0^19,24]pentacosa [16,18,24]trien]-15′-one 13′,13′-dioxide] it was 2.31 nM; in that of `O=C1NS(=O)(=O)CCC/C=C/[C@@H]2CC[C@H]2CN2C[C@@]3(CCCc4cc(Cl)ccc43)COc3ccc1cc32` [Example 829, (1S,3′R,6′S, 7′E)-6-chloro-3,4-dihydro-2H,14′H-spiro[naphthalene-1,21′-[19]oxa[12]thia[1,13]diazatetracyclo[13.7.2.0^3,6.0^18,23]tetracosa [7,15,17,23]tetraen]-14′-one 12′,12′-dioxide], 9.87 nM; in that of `O=C1NS(=O)(=O)CCCCC[C@@H]2CC[C@H]2CN2C[C@@]3(CCCc4ccccc43)COc3ccc1cc32` [Example 823, (1S,3′R,6′R)-3,4-dihydro-2H,14′H-spiro[naphthalene-1,21′-[19]oxa[12]thia[1,13]diazatetracyclo[13.7.2.0^3,6.0^18,23]tetracosa [15,17,23]trien]-14′-one 12′,12′-dioxide], 48.2 nM.
